Test results taken from patent publication US20200261427A1 (Al Therapeutics, Inc., priority 2019, published 2020).
Values after ≈ are worked out from the molar mass of the structure shown.

Legend:
[1] = pH stability screen of rapamycin in 1:1 ethanol:water; assay type: physicochemical; settings: 0.1 mg/mL in 1:1 ethanol:water, pH 3, 5, unbuffered; 1 week at 5, 25, 40° C. (FIG. 2)
Experimental: 20 mM citrate buffers were prepared at pH 3, 5 and 7. With the exception of the pH 7 buffer, these buffers were miscible in 50% ethanol. Rather than reduce the buffer concentration to obtain a higher pH, the third solution was prepared with unbuffered water. An Orion 710A+ pH meter with a Thermo Scientific electrode was used for pH measurement.

[2] = Solubility screening by gravimetric analysis; assay type: physicochemical
Experimental: Solubility screening was performed by gravimetric analysis. In a glass vial, known amounts of API were added to a known amount of solvent and the sample was rotated with a vial rotator (VWR) at room temperature. If the API completely dissolved, an additional known amount was added. The samples were rotated for at least 48 hours after the last API addition before determining the gravimetric result (i.e., greater than a % w/w or less than a % w/w).

[3] = Stability of rapamycin in solvents PG, TC, DMI; assay type: physicochemical; settings: 0.2% w/w in DMI, 1 week at 5, 25, 40° C. (FIG. 3)
[4] = Antioxidant screen in Transcutol; assay type: physicochemical
Experimental: Since there was significant degradation in diethylene glycol monoethyl ether (TC) after 1 week, and TC can generate peroxides, it was selected as the solvent for the antioxidant screen. […] (1) No antioxidant; […] […] The 4-week data at 40° C. was used to calculate the main effects of the two antioxidants and their interaction (Box et al., 1978) for the assay values. The positive effect of BHA (+23.8) was twice the positive effect of Vit. E (+11.6).

physchem = settings: thermodynamic from solid
Experimental: (§1) All solutions were buffered with 5 mM citrate buffer at pH 4.5.

[5] = Microscopic examination of rapamycin crystal growth; settings: rectangular crystals in gels showing crystal growth
[6] = Saturation solubility in solvents and 10% co-solvent aqueous solutions
Experimental: as §1

rapamycin pH stability [1]: more stable at an acidic pH
Rapamycin solubility % w/w ([2]; Diethylene glycol monoethyl ether (TC)): >13 % w/w
Rapamycin solubility % w/w ([2]; Diisopropyl adipate): <1.0 % w/w
Rapamycin solubility % w/w ([2]; Dimethyl isosorbide (DMI)): >7 % w/w
Rapamycin solubility % w/w ([2]; Hexylene glycol): <1.0 % w/w
Rapamycin solubility % w/w ([2]; Isopropyl myristate): <0.1 % w/w
Rapamycin solubility % w/w ([2]; Light mineral oil): <0.3 % w/w
Rapamycin solubility % w/w ([2]; Medium chain triglycerides): <0.1 % w/w
Rapamycin solubility % w/w ([2]; Octyldodecanol): <1.0 % w/w
Rapamycin solubility % w/w ([2]; PEG 400): <1.5 % w/w
Rapamycin solubility % w/w ([2]; Propylene glycol (PG), room temperature): <0.75 % w/w
Rapamycin Assay (% of Initial) ([4]; 0.002% Vit. E, 25° C., week 1): 98.3 % of Initial
Rapamycin Assay (% of Initial) ([4]; 0.002% Vit. E, 25° C., week 4): 98.2 % of Initial
Rapamycin Assay (% of Initial) ([4]; 0.002% Vit. E, 40° C., week 1): 96.8 % of Initial
Rapamycin Assay (% of Initial) ([4]; 0.002% Vit. E, 40° C., week 2): 97.0 % of Initial
Rapamycin Assay (% of Initial) ([4]; 0.002% Vit. E, 40° C., week 4): 82.2 % of Initial
Rapamycin Assay (% of Initial) ([4]; 0.01% BHA, 25° C., week 1): 99.2 % of Initial
Rapamycin Assay (% of Initial) ([4]; 0.01% BHA, 25° C., week 4): 98.3 % of Initial
Rapamycin Assay (% of Initial) ([4]; 0.01% BHA, 40° C., week 1): 97.1 % of Initial
Rapamycin Assay (% of Initial) ([4]; 0.01% BHA, 40° C., week 2): 98.1 % of Initial
Rapamycin Assay (% of Initial) ([4]; 0.01% BHA, 40° C., week 4): 94.4 % of Initial
Rapamycin Assay (% of Initial) ([4]; 0.2% w/w in Transcutol, No Antioxidant, 25° C., week 1): 95.7 % of Initial
Rapamycin Assay (% of Initial) ([4]; BHA + Vit. E, 25° C., week 1): 98.8 % of Initial
Rapamycin Assay (% of Initial) ([4]; BHA + Vit. E, 25° C., week 4): 98.7 % of Initial
Rapamycin Assay (% of Initial) ([4]; BHA + Vit. E, 40° C., week 1): 96.9 % of Initial
Rapamycin Assay (% of Initial) ([4]; BHA + Vit. E, 40° C., week 2): 98.7 % of Initial
Rapamycin Assay (% of Initial) ([4]; BHA + Vit. E, 40° C., week 4): 96.2 % of Initial
Rapamycin Assay (% of Initial) ([4]; No Antioxidant, 25° C., week 4): 84.6 % of Initial
Rapamycin Assay (% of Initial) ([4]; No Antioxidant, 40° C., week 1): 87.3 % of Initial
Rapamycin Assay (% of Initial) ([4]; No Antioxidant, 40° C., week 2): 79.0 % of Initial
Rapamycin Assay (% of Initial) ([4]; No Antioxidant, 40° C., week 4): 60.8 % of Initial
solubility (physchem; 10% TC and 10% DMI aqueous solutions versus water, pH 4.5, aqueous with cosolvent or surfactant or cyclodextrin): 1.5 to 2 µg/mL (≈ 1.64 to 2.19 µM)
solubility (physchem; 10% propylene glycol (PG) aqueous solution, citrate buffered, pH 4.5, aqueous with cosolvent or surfactant or cyclodextrin): 2.9 µg/mL (≈ 3.17 µM)
solubility (physchem; pH 4.5, aqueous with cosolvent or surfactant or cyclodextrin): 5.2 µg/mL (≈ 5.69 µM)
solubility (physchem; water, citrate buffered, pH 4.5, aqueous buffer): 2.9 µg/mL (≈ 3.17 µM)
length of rapamycin crystals grown [5]: 25-100 microns
Rapamycin Solubility ([6]; 10% Diethylene Glycol Monoethyl Ether (TC), pH 4.5, 5 mM citrate): 4.6 µg/mL
saturation solubility ([6]; in TC): 15.5 % w/w
SMILES: CO[C@H]1C[C@@H]2CC[C@@H](C)[C@@](O)(O2)C(=O)C(=O)N2CCCC[C@H]2C(=O)O[C@H]([C@H](C)C[C@@H]2CC[C@@H](O)[C@H](OC)C2)CC(=O)[C@H](C)/C=C(\C)[C@@H](O)[C@@H](OC)C(=O)[C@H](C)C[C@H](C)/C=C/C=C/C=C/1C [Rapamycin, rapamycin]
solvent compatibility (solution stability) [3]: most compatible with propylene glycol (PG) and least compatible with dimethyl isosorbide (DMI)
